Results reported in publication PMC6271394, “Catechins and Procyanidins of Ginkgo biloba Show Potent Activities towards the Inhibition of β-Amyloid Peptide Aggregation and Destabilization of Preformed Fibrils” (Molecules, 2014).

Key:
preformed Aβ42 fibrils = biological target: T1, preformed Aβ42 fibrils (Homo sapiens, UniProt P05067); assay: Destabilization assay (ThT fluorescence): destabilization of preformed Aβ42 fibrils; type: biochemical; conditions: for EC50: fibrils preformed from 25 μM Aβ42 (24 h, 37 °C), further 24 h at 37 °C with compound, ThT fluorescence
T1 construct: The Aβ42 peptide was produced by Bachem AG; purchased Bachem AG
T1 sequence (P05067 672-713 limits assumed, species assumed): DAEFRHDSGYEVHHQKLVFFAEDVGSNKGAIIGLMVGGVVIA
Procedure: The destabilization assay used to evaluate the activities of the polyphenolic compounds towards the destabilization of preformed fibrils was performed as described by Ono et al.. Briefly, a reaction mixture containing 25 μM Aβ42 and 50 mM phosphate buffer (pH 7.5 and 100 mM NaCl) was incubated on a PCR system for 24 h at 37 °C to form fibrils. All of the test compounds (i.e., C, EC, GC, EGC, P-B1, and P-B3) were initially dissolved in DMSO at concentrations of 30, 100 and 300 μM, and 1 and 3 mM, before being added to the reaction mixture to give final concentrations of 0.3, 1.0, 3.0, 10, and 30 μM, respectively. The resulting mixtures were continued the incubation of 24 h at 37 °C, and then subjected to fluorescent measurements as in the polymerization assay.
(§1) The fluorescence measurements were recorded on an Envision® 2104 Multilabel Reader (Perkin Elmer, Waltham, MA, USA), with optimized excitation and emission wavelengths of 430 (BW 24 nm) and 470 nm (BW 24 nm), respectively. The reaction mixture contained 5 μM ThT and 50 mM of glycine-NaOH buffer (pH 8.5). The IC50 and EC50 values were calculated using the GraphPad Prism 5 software. All results were expressed as the mean ± SEM, and statistical analyses were performed using the Student’s t test.

Aβ42 [1] = biological target: T2, Aβ42 (Homo sapiens, UniProt P05067); assay: Polymerization assay (ThT fluorescence): inhibition of Aβ42 aggregation; type: biochemical; conditions: for IC50: 25 μM Aβ42, 1% DMSO, 50 mM phosphate buffer pH 7.5, 100 mM NaCl, ThT fluorescence
T2 construct: The Aβ42 peptide was produced by Bachem AG; purchased Bachem AG
T2 sequence (P05067 672-713 limits assumed, species assumed): as above
Procedure: The polymerization assay was performed as previously described in the literature. For single compounds, the reaction mixture contained 25 μM Aβ42, 0.3, 1.0, 3.0, 10, or 30 μM C, EC, GC, EGC, P-B1, or P-B3, 1% DMSO, 50 mM phosphate buffer (pH 7.5) and 100 mM NaCl. Prior to being tested, the compounds were dissolved in DMSO at concentrations of 30, 100 and 300 μM, and 1.0 and 3.0 mM, and then added to the reaction mixture to final concentrations 0.3, 1.0, 3.0, 10, and 30 μM, respectively. For the extract and its fractions, different concentration sequences were incubated in the reaction mixture. With the exception of one sequence (i.e., 3.0, 10, 30, 100 and 200 μg/mL) for Fr. Ts and another (i.e., 0.3, 1.0, 3.0, 10, 30 μg/mL) for Fr. Ps, one concentration sequence (i.e., 1.0, 3.0, 10, 30 and 100 μg/mL) was used for the extract and all of the other fractions.
as §1

Aβ42 [2] = biological target: T2, Aβ42; design: method as in PMID 24727418; conditions: earlier work of the same authors; cited from earlier work

Row | EC50 (preformed Aβ42 fibrils) | IC50 (Aβ42 [1]) | Molecule | activity towards Aβ42 aggregation in vitro (in words) (Aβ42 [2]) | ability to destabilize fibrils (in words) (preformed Aβ42 fibrils; this paper's destabilization assay) | inhibitory activity towards Aβ42 aggregation (in words) (Aβ42 [1]; this paper's polymerization assay)
1 | 3.51 ± 0.32 µM | 3.28 ± 0.46 µM | Oc1cc(O)c2c(c1)O[C@H](c1ccc(O)c(O)c1)[C@H](O)[C@H]2c1c(O)cc(O)c2c1O[C@H](c1ccc(O)c(O)c1)[C@@H](O)C2 [P-B1, Procyanidin B1] | – | – | –
2 | 5.12 ± 0.75 µM | 3.54 ± 0.39 µM | Oc1cc(O)c2c(c1)O[C@H](c1ccc(O)c(O)c1)[C@@H](O)[C@@H]2c1c(O)cc(O)c2c1O[C@H](c1ccc(O)c(O)c1)[C@@H](O)C2 [P-B3, procyanidin B3] | – | – | –
3 | – | – | ginkgolide B | very little activity | – | –
4 | 5.99 ± 0.6 µM | 9.44 ± 0.24 µM | Oc1cc(O)c2c(c1)O[C@H](c1ccc(O)c(O)c1)[C@H](O)C2 [EC, (−)-epicatechin] | – | – | –
5 | – | – | C[C@@H]1C(=O)O[C@H]2C[C@@]34[C@H]5C[C@@H](C(C)(C)C)[C@]36[C@@H](OC(=O)[C@@H]6O)O[C@@]4(C(=O)O5)[C@]21O [ginkgolides A, ginkgolide A] | very little activity | – | –
6 | – | – | CC(C)(C)[C@]1(O)CC2OC(=O)CC23C(=O)OC2OC(=O)[C@H](O)C231 (stereo partly drawn) [bilobalide] | very little activity | – | –
7 | 5.27 ± 1.26 µM | 14.9 ± 3.42 µM | Oc1cc(O)c2c(c1)O[C@H](c1ccc(O)c(O)c1)[C@@H](O)C2 [C, (+)-catechin] | very little activity | – | –

Row | Molecule | EC50 (preformed Aβ42 fibrils) | IC50 (Aβ42 [1]) | activity towards Aβ42 aggregation in vitro (in words) (Aβ42 [2]) | ability to destabilize fibrils (in words) (preformed Aβ42 fibrils; this paper's destabilization assay) | inhibitory activity towards Aβ42 aggregation (in words) (Aβ42 [1]; this paper's polymerization assay)
8 | Oc1cc(O)c2c(c1)O[C@H](c1cc(O)c(O)c(O)c1)[C@H](O)C2 [EGC, (−)-epigallocatechin] | 7.76 ± 0.94 µM | 8.51 ± 0.96 µM | – | – | –
9 | Oc1cc(O)c2c(c1)O[C@H](c1cc(O)c(O)c(O)c1)[C@@H](O)C2 [GC, (−)-gallocatechin] | 15.7 ± 3.19 µM | 17.5 ± 0.57 µM | – | least influence | least influence
